Twelve compounds from article PMC11765156 (International Journal of Molecular Sciences, 2025) can be followed below.

≈ marks a conversion by molar mass, not a printed value.

For one data set, the system named is Balanus amphitrite. The data set can be described thus: Anti-settlement assay with barnacle cyprid larvae (settlement inhibition and mortality, 48 h). Type of data set: in vivo. Conditions: for EC50: Amphibalanus amphitrite, read-out: EC50 (inhibition of barnacle larval settlement); for LC50/EC50: Balanus amphitrite, ratio >15 indicating low toxicity. The method, then:
(§1) Compounds dissolved in DMSO were sequentially administered to the wells, starting with a concentration of 25 µg/mL and proceeding with serial half-logarithmic dilutions. The volume of the compound in each well was maintained at […], with seawater as the blank control, DMSO as the negative control, and SeaNine 211 serving as the positive control. Utilizing a stereo microscope, a 1 mL micropipette was employed to introduce 995 μL of seawater and between 21 and 25 cyprid larvae into each well of a 24-well plate. Subsequently, the plates were incubated in a darkened, temperature-controlled environment for 48 h. […] This observation facilitated the calculation of mortality and settlement rates of the barnacle cyprids, crucial for assessing the antifouling properties of the compounds. The determination of EC50 values for the inhibition of barnacle larval attachment and LC50 values for larval mortality offered an evaluation of the compounds’ efficacy in deterring barnacle larval adherence and their associated toxicity.

Experiment in data set [1]: as above
The data set is classed as in vivo, Balanus amphitrite. Conditions: in vivo, other: larvae immersed in seawater containing the compound; Balanus amphitrite cyprid larvae, 48 h incubation; read-out: LC50 (larval mortality). On the procedure:
as §1

The subject of data set [2] is Balanus amphitrite cyprid larvae. The experiment in a line: Rescue (resuscitation) assay of Balanus amphitrite cyprid larvae. Type of data set: in vivo. Conditions: 1 μg/mL for 24 h, rinsed, settlement observed after 48 h.
The nature of data set [3]: Zebrafish embryo toxicity assay. Conditions: in vivo, other: embryos immersed in compound solution in wells, 48 h exposure, read-out: LC50 at 48 h post-fertilization. The data set is classed as in vivo. The method, then:
(§2) The zebrafish embryo toxicity assay was conducted according to the method described by Huang et al., with slight modifications. Test compounds were dissolved in 0.5% DMSO to prepare a concentration series (0.1, 1, 5, 25, 50 μg/mL), which was then dispensed into 24-well plates. Fifteen cleavage-stage embryos were added to each well. The plates were incubated at 28 °C, and embryonic development was evaluated under a stereomicroscope after 48 h of exposure.

Another data set concerns zebrafish embryos. The data set can be described thus: Zebrafish embryo toxicity assay. The data set is classed as in vivo. Conditions: for phenotype of zebrafish embryos versus control: 48 h. On the procedure: as §2
Where [4] appears, read: Balanus amphitrite cyprid larvae, 48 h incubation.

`COC(=O)C12OCC34C(CC5C(C)=C(O)C(=O)CC5(C)C3C(O)C1O)OC(=O)C(OC(=O)CCCCBr)C24` (stereo not shown) [Compound 1, 15-O-(5′-Bromovaleryl)-Bruceolide]: the concentration for a half-maximal effect (EC50) – broadly, the concentration giving half of the maximal effect – in the data set on Balanus amphitrite (setting [4]) amounted to 0.523 ± 0.123 µg/mL (≈ 0.87 µM). Also, the LC50 (as a rule, the concentration lethal to half of the exposed cells or organisms) at 48 h in data set [1] amounted to 0.842 ± 0.112 µg/mL (≈ 1.4 µM).

On to `COC(=O)C12OCC34C(CC5C(C)=C(O)C(=O)CC5(C)C3C(O)C1O)OC(=O)C(OC(=O)CCCCCl)C24` (stereo not shown) [Compound 2, 15-O-(5′-Chlorovaleryl)-Bruceolide], for which the EC50 with Balanus amphitrite (setting [4]) is 0.417 ± 0.185 µg/mL (≈ 0.748 µM). The LC50/EC50 in the data set on Balanus amphitrite came to 2.6978. Besides, in data set [1], the LC50 at 48 h came to 1.12 ± 0.144 µg/mL (≈ 2.02 µM).

For `COC(=O)C12OCC34C(CC5C(C)=C(O)C(=O)CC5(C)C3C(O)C1O)OC(=O)C(OC(=O)CCCCl)C24` (stereo not shown) [Compound 3, 15-O-(4′-Chlorobutanoyl)-Bruceolide], in data set [2], the recovery rate entry is listed as “high recovery rates” and the resuscitation rate is listed as 71.11%. Besides, the LC50 at 48 h in data set [3] amounted to 15.8 µg/mL (≈ 29 µM). The “phenotype of zebrafish embryos versus control” value in the data set with zebrafish embryos is “no significant phenotypic differences”. Moreover, the EC50 in the data set with Balanus amphitrite (setting [4]) was 0.147 ± 0.0332 µg/mL (≈ 0.272 µM). For the same compound, the LC50/EC50 in the data set on Balanus amphitrite stood at 42.2922. Also, in data set [1], the median lethal concentration (LC50) at 48 h amounted to 6.24 ± 2.62 µg/mL (≈ 11.5 µM).

In the case of `COC(=O)C12OCC34C(CC5C(C)=C(O)C(=O)CC5(C)C3C(O)C1O)OC(=O)C(OC(=O)c1ccc(Cl)cc1)C24` (stereo not shown) [Compound 4], the half-maximal effective concentration (EC50) in the data set with Balanus amphitrite (setting [4]) was determined as 0.353 ± 0.101 µg/mL (≈ 0.611 µM). In addition, the LC50/EC50 in the data set on Balanus amphitrite came to 2.1018. Also, the LC50 at 48 h in data set [1] was found to be 0.741 ± 0.082 µg/mL (≈ 1.28 µM).

`COC(=O)C12OCC34C(CC5C(C)=C(O)C(=O)CC5(C)C3C(O)C1O)OC(=O)C(OC(=O)c1ccc(Cl)s1)C24` (stereo not shown) [Compound 5]: the EC50 in the data set on Balanus amphitrite (setting [4]) came to 2.02 ± 0.237 µg/mL (≈ 3.47 µM). Besides, in the data set on Balanus amphitrite, the LC50/EC50 amounted to 3.0330. In data set [1], the LC50 at 48 h was 6.14 ± 0.173 µg/mL (≈ 10.5 µM).

Take `COC(=O)C12OCC34C(CC5C(C)=C(O)C(=O)CC5(C)C3C(O)C1O)OC(=O)C(OC(=O)c1ccc(Cl)nc1)C24` (stereo not shown) [Compound 6]: the recovery rate entry in data set [2] is “high recovery rates”. Besides, the LC50 at 48 h in data set [3] came out at 8.18 µg/mL (≈ 14.2 µM); in data set [1], 5.77 ± 2.54 µg/mL (≈ 9.98 µM). Besides, the “phenotype of zebrafish embryos versus control” value with zebrafish embryos was “no significant phenotypic differences”. Also, the EC50 in the data set on Balanus amphitrite (setting [4]) worked out at 0.34 ± 0.104 µg/mL (≈ 0.589 µM). Besides, the LC50/EC50 in the data set with Balanus amphitrite worked out at 16.9633.

As to `COC(=O)C12OCC34C(CC5C(C)=C(O)C(=O)CC5(C)C3C(O)C1O)OC(=O)C(OC(=O)Cc1cccc(F)c1)C24` (stereo not shown) [Compound 8, 15-O-(5′-Fluorophenylacetyl)-Bruceolide], the EC50 in the data set on Balanus amphitrite (setting [4]) turned out to be 1.12 ± 0.103 µg/mL (≈ 1.95 µM). The LC50/EC50 with Balanus amphitrite was determined as 5.2723. Moreover, in data set [1], the LC50 at 48 h was 5.91 ± 1.03 µg/mL (≈ 10.3 µM).

With `COC(=O)C12OCC34C(CC5C(C)=C(O)C(=O)CC5(C)C3C(O)C1O)OC(=O)C(OC(=O)CCC#N)C24` (stereo not shown) [Compound 12, 15-O-(3′-Cyanopropanoyl)-Bruceolide], the EC50 in the data set with Balanus amphitrite (setting [4]) stood at 1.39 ± 0.135 µg/mL (≈ 2.67 µM). The LC50/EC50 with Balanus amphitrite came to 2.0219. Besides, the LC50 at 48 h in data set [1] is 2.8 ± 0.122 µg/mL (≈ 5.39 µM).

Take `COC(=O)C12OCC34C(CC5C(C)=C(O)C(=O)CC5(C)C3C(O)C1O)OC(=O)C(OC(=O)Cc1cccc(C#N)c1)C24` (stereo not shown) [Compound 13, 15-O-(5′-Cyano-Phenyl-3′-Acetyl)-Bruceolide]: in the data set with Balanus amphitrite (setting [4]), the EC50 came out at 1.84 ± 0.179 µg/mL (≈ 3.17 µM). In addition, in the data set on Balanus amphitrite, the LC50/EC50 amounted to 3.5854. Further, in data set [1], the LC50 at 48 h turned out to be 6.61 ± 0.112 µg/mL (≈ 11.4 µM).

`COC(=O)C12OCC34C(CC5C(C)=C(O)C(=O)CC5(C)C3C(O)C1O)OC(=O)C(OC(=O)c1ccc(C(C)=O)s1)C24` (stereo not shown) [Compound 14, 15-O-(3′-Acetyl-Thiophen-6′-Carbonyl)-Bruceolide]: the EC50 in the data set on Balanus amphitrite (setting [4]) was 2.15 ± 0.727 µg/mL (≈ 3.63 µM). The LC50/EC50 in the data set on Balanus amphitrite stood at 3.6926. Besides, the LC50 at 48 h in data set [1] was determined as 7.92 ± 0.243 µg/mL (≈ 13.4 µM).

Turning to `CCCCCCCCn1sc(Cl)c(Cl)c1=O` [SeaNine 211, reference compound], in the data set on zebrafish embryos (48 h exposure), the “LC50 at 48 h post-fertilization” value is 7.2236 µg/mL (≈ 25.6 µM). Further, in the data set on Balanus amphitrite (setting [4]), the “EC50 (inhibition of barnacle larval settlement)” value was 1.9363 ± 0.4128 µg/mL and the “LC50 (larval mortality)” value worked out at 33.9306 ± 2.0625 µg/mL (≈ 120 µM).

Turning to brusatol [B1, reference compound], the “EC50 (inhibition of barnacle larval settlement)” value in the data set with Balanus amphitrite (setting [4]) is 2.7826 ± 0.6874 µg/mL.
